Where two headings read alike, the source gives them in different places.

For series [1], the system named is Caspase 3. In words: Western blot, Caspase 3 levels. The format is cell-based, human. The settings on record: PACA2, 5g glucose, amount 50. The method, then: The blots were stripped by incubating for 30 minutes with methanol, followed by two 10 minute washes with TBS-T, then 30 minutes of incubation with Stripping buffer at 50 deg C., and followed by two washes with 100 ml or more of TBS-T for 30′ each. The 2 blots were scanned in laser scanner to check for complete stripping. The blots were activated with methanol for 5 seconds, washed with water for 5 minutes, and TBST for 15 minutes. The blots were blocked for 1 hour with 5% blocking reagent in TBS-T at room temperature and then washed 3 times with TBS-T (1×-15′; 2×5′ each) and probed with the antibody for Caspase 3 in 5% BSA (Santacruz Biotechnology # sc7272) at 1:200 dilutions) overnight at 4 deg C. with shaking. After the overnight incubation with primary antibody for Caspase 3, the membranes were washed 3 times with TBS-T (1×-15′; 2×5′ each) and probed with the secondary antibody (antimouse; 1:10,000 dilution) for 1 h on the orbital tilting shaker at room temperature. […]
The levels of Caspase 3 and actin were determined by probing the blots successively with primary antibodies for Caspase 3 and actin, essentially as described above. […]

Series [2] has as its system pancreatic cancer. The settings on record: intravenous.
The conditions of series [3]: one study with rats; cited from earlier work.

On to `COC1=C(OC)C(=O)C(C/C=C(\C)CC/C=C(\C)CC/C=C(\C)CC/C=C(\C)CC/C=C(\C)CC/C=C(\C)CC/C=C(\C)CC/C=C(\C)CC/C=C(\C)CCC=C(C)C)=C(C)C1=O` [Q10, Coenzyme Q10], for which the “Caspase 3 Normalized Volume (48 h)” value in series [1] is on record as 701. Besides, the animals alive result in series [2] (5 mg/kg (Group D), after 28 days) is “most of the animals”; in series [2] (10 mg/kg (Group E), after 28 days) it was “most of the animals”; in series [2] (25 mg/kg (Group F), after 28 days) it was “most of the animals”; in series [2] (50 mg/kg (Group G), at 28 days) it was “all of the animals”. Besides, the “orally-administered CoQ10 absorbed” value in series [3] is recorded as 2-3%.

The values are drawn from patent US10351915B2 (Berg LLC, priority 2009, dated 2019).
